Among the data in patent US20240150334A1, “HSD17B13 INHIBITORS AND/OR DEGRADERS” (Pfizer Inc., priority 2022, published 2024) are IC50 values, retold here.

One assay concerns the target wild type human HSD17B13 (Homo sapiens (Human), UniProt Q7Z5P4). As to the kind of experiment: HEK_Beta-Est LCMS_IC50_Tekcel, whole-cell HEK-HSD17B13 inhibition assay, estrone production by LCMS. Format: cell-based. Particulars: geometric mean, HEK cells stably expressing wild type human HSD17B13, 25 μM FAC beta-estradiol, read-out: HEK_Beta-Est LCMS_IC50—Tekcel GMean IC50. The procedure, abridged:
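Readout was LCMS quantitation of estrone made from beta-estradiol with NAD+ as cofactor. Whole HEK-HSD17B13 cells were given compound for 1 hour, then the reaction for 2 hours, both at 37° C. Product area ratios were normalized to vehicle controls as zero percent effect.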

In another assay the target is HSD17B13 enzyme (Homo sapiens (Human), UniProt Q7Z5P4). As to the kind of experiment: hHSD17B13 IC50 Assay (FAC beta-estradiol), purified protein enzyme activity assay with NAD(P)H-Glo luciferase readout. Type of assay: biochemical. Particulars: geometric mean, 12 μM FAC beta-estradiol, 500 μM NAD+, read-out: hHSD17B13_IC50 GMean IC50. On the procedure: The following protocols may of course be varied by those skilled in the art. hHSD17B13 IC50 Assay (FAC beta-estradiol)
HSD17B13 enzyme inhibition potency of test compounds was determined using a purified protein biochemical enzyme activity assay, using NAD(P)H-Glo luciferase readout (Promega). HSD17B13 enzyme uses the oxidized form of nicotinamide adenine dinucleotide (NAD+) as a cofactor during metabolism of Beta-Estradiol (substrate) to […], while converting NAD+ to the reduced form (NADH). The Promega NAD(P)H-Glo™ assay is a homogeneous bioluminescent assay that generates a light signal from biochemical reactions that contain NADH (or nicotinamide adenine dinucleotide phosphate, NADPH). In the presence of NADH (or NADPH), the enzyme Reductase reduces a proluciferin reductase substrate to form luciferin. Luciferin then is quantified using Ultra-Glo™ Recombinant Luciferase (rLuciferase), and the light signal produced is proportional to the amount of NAD(P)H in the sample. […] The reaction was initiated by the addition of 2 μL/well purified HSD17B13 protein (30 nM FAC in assay buffer). Compound, substrate mix and HSD17B13 protein was incubated in the dark at room temperature for 2 hours before the addition of 3 μL/well NAD(P)H-Glo detection reagent, prepared from luciferase detection reagent and reductase/reductase substrate, as per manufacturer's instructions (Promega, G9061). Detection reagent was incubated in the dark for 1 hour at room temperature before plates were read on the Envision plate reader (Perkin Elmer) using a luminescent protocol. Data expressed as relative luminescent units (RLUs) were then normalized to control wells using Activity Base (IDBS). Zero percent effect (ZPE) was defined as RLUs generated from uninhibited HSD17B13 protein (vehicle control).

Sequence of wild type human HSD17B13 (Q7Z5P4 20-300): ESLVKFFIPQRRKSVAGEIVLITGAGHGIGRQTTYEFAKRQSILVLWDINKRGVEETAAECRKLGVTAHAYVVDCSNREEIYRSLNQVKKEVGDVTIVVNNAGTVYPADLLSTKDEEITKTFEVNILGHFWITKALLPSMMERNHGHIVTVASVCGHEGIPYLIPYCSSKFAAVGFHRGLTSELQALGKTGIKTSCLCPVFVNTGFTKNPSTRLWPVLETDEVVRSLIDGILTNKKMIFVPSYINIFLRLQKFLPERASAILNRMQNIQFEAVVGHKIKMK
Sequence of HSD17B13 enzyme (Q7Z5P4 20-300): as above

What is called IC50 is the concentration that inhibits the measured activity by half. Take `O=C(NC[C@H]1CC[C@H](n2cc3cnc(-c4ccncc4)cc3n2)CC1)c1cc(F)c(O)c(F)c1` [Example 188, 3,5-difluoro-4-hydroxy-N-({(1r,4r)-4-[6-(pyridin-4-yl)-2H-pyrazolo[4,3-c]pyridin-2-yl]cyclohexyl}methyl) benzamide]: the IC50 on wild type human HSD17B13 was 240 nM; on HSD17B13 enzyme, 11 nM.

Regarding `O=C(NC[C@H]1CC[C@H](n2cc3ccc(-c4cnn(C5CCOC5)c4)cc3n2)CC1)c1cc(F)c(O)c(F)c1` (stereo partly shown) [Example 38, 3,5-difluoro-4-hydroxy-N-{[(1r,4r)-4-{6-[1-(oxolan-3-yl)-1H-pyrazol-4-yl]-2H-indazol-2-yl}cyclohexyl]methyl} benzamide], the values for the concentration for half-maximal inhibition (IC50) on wild type human HSD17B13 and on HSD17B13 enzyme were 150 nM and 4.6 nM, respectively.

`O=C(NC[C@H]1CC[C@H](n2cc3ccc(-c4cncnc4)cc3n2)CC1)c1cc(F)c(O)c(F)c1F` [Example 9, 2,3,5-Trifluoro-4-hydroxy-N-({(1r,4r)-4-[6-(pyrimidin-5-yl)-2H-indazol-2-yl]cyclohexyl}methyl)benzamide]: the half-inhibitory concentration (IC50) on wild type human HSD17B13 worked out at 170 nM; on HSD17B13 enzyme, 13 nM.

Consider `O=C(NC[C@H]1CC[C@H](n2cc3ccc(-c4ncc(CO)cn4)cc3n2)CC1)c1cc(F)c(O)c(F)c1` [Example 58, 3,5-difluoro-4-hydroxy-N-{[(1r,4r)-4-{6-[5-(hydroxymethyl)pyrimidin-2-yl]-2H-indazol-2-yl}cyclohexyl]methyl} benzamide], for which the IC50 came to 280 nM at wild type human HSD17B13 and 25 nM at HSD17B13 enzyme.

Consider `O=C(NC[C@H]1CC[C@H](n2cc3ccc(-c4cnn(C5CCOCC5)c4)cc3n2)CC1)c1cc(F)c(O)c(F)c1` [Example 12, 3,5-Difluoro-4-hydroxy-N-{[(1r,4r)-4-{6-[1-(oxan-4-yl)-1H-pyrazol-4-yl]-2H-indazol-2-yl}cyclohexyl]methyl}benzamide], for which the IC50 at wild type human HSD17B13 stood at 290 nM; at HSD17B13 enzyme, 11 nM.

On to `O=C(NC[C@H]1CC[C@H](c2nc(-c3ccc(C(F)(F)F)cn3)no2)CC1)c1cc(F)c(O)c(F)c1` [Example 2, 3,5-Difluoro-4-hydroxy-N-{[(1r,4r)-4-{3-[5-(trifluoromethyl)pyridin-2-yl]-1,2,4-oxadiazol-5-yl}cyclohexyl]methyl}benzamide], for which the IC50 on wild type human HSD17B13 came out at 470 nM; on HSD17B13 enzyme, 12 nM.

On to `O=C(NC[C@]12CC[C@](c3nc(-c4ccc(C(F)(F)F)nc4)no3)(CC1)CC2)c1cc(F)c(O)c(F)c1` [Example 140, 3,5-difluoro-4-hydroxy-N-[(4-{3-[6-(trifluoromethyl)pyridin-3-yl]-1,2,4-oxadiazol-5-yl}bicyclo[2.2.2]octan-1-yl)methyl] benzamide], for which the figures for the IC50 on wild type human HSD17B13 and on HSD17B13 enzyme were 220 nM and 16 nM, respectively.

Consider `COc1cccc2nn([C@H]3CC[C@H](CNC(=O)c4cc(F)c(O)c(F)c4)CC3)cc12` [Example 122, 3,5-difluoro-4-hydroxy-N-{[(1r,4r)-4-(4-methoxy-2H-indazol-2-yl)cyclohexyl]methyl} benzamide], for which the figures for the concentration for half-maximal inhibition (IC50) on wild type human HSD17B13 and at HSD17B13 enzyme were 310 nM and 14 nM, respectively.

Turning to `CCn1cc(-c2ccc3cn([C@H]4CC[C@H](CNC(=O)c5cc(F)c(O)c(F)c5)CC4)nc3c2)cn1` [Example 47, N-({(1r,4r)-4-[6-(1-ethyl-1H-pyrazol-4-yl)-2H-indazol-2-yl]cyclohexyl}methyl)-3,5-difluoro-4-hydroxybenzamide], the figures for the IC50 on wild type human HSD17B13 and at HSD17B13 enzyme were 110 nM and below 4.4 nM, respectively.

On to `O=C(NC[C@]12CC[C@](n3cc4ccccc4n3)(CC1)CC2)c1cc(F)c(O)c(F)c1` [Example 202, 3,5-difluoro-4-hydroxy-N-{[4-(2H-indazol-2-yl)bicyclo [2.2.2]octan-1-yl]methyl}benzamide], for which the results for the IC50 at wild type human HSD17B13 and on HSD17B13 enzyme were 220 nM and 49 nM, respectively.

As for `Cc1ncc(-c2ccc3cn([C@H]4CC[C@H](CNC(=O)c5cc(F)c(O)c(F)c5)CC4)nc3c2)cn1` [Example 77, 3,5-difluoro-4-hydroxy-N-({(1r,4r)-4-[6-(2-methylpyrimidin-5-yl)-2H-indazol-2-yl]cyclohexyl}methyl) benzamide], the half-maximal inhibitory concentration (IC50) on wild type human HSD17B13 stood at 160 nM; at HSD17B13 enzyme, 13 nM.

As to `O=C(NC[C@H]1CC[C@H](n2cc3ccc(-c4ccnnc4)cc3n2)CC1)c1cc(F)c(O)c(F)c1` [Example 71, 3,5-difluoro-4-hydroxy-N-({(1r,4r)-4-[6-(pyridazin-4-yl)-2H-indazol-2-yl]cyclohexyl}methyl)benzamide], the IC50 was 430 nM on wild type human HSD17B13 and 9.6 nM on HSD17B13 enzyme.

Take `COc1cnc(-c2noc([C@]34CC[C@](CNC(=O)c5cc(F)c(O)c(F)c5)(CC3)CC4)n2)cn1` [Example 152, 3,5-difluoro-4-hydroxy-N-({4-[3-(5-methoxypyrazin-2-yl)-1,2,4-oxadiazol-5-yl]bicyclo[2.2.2]octan-1-yl}methyl)benzamide]: the IC50 stood at 140 nM on wild type human HSD17B13 and 10 nM at HSD17B13 enzyme.

As to `O=C(NC[C@]12CC[C@](c3nc(-c4cnc(C(F)(F)F)cn4)no3)(CC1)CC2)c1cc(F)c(O)cc1F` [Example 179, 2,5-difluoro-4-hydroxy-N-[(4-{3-[5-(trifluoromethyl)pyrazin-2-yl]-1,2,4-oxadiazol-5-yl}bicyclo[2.2.2]octan-1-yl)methyl]benzamide], the results for the IC50 on wild type human HSD17B13 and at HSD17B13 enzyme were 150 nM and 16 nM, respectively.

Regarding `O=C(NC[C@]12CC[C@](n3cc4cc(C(F)(F)F)ccc4n3)(CC1)CC2)c1cc(F)c(O)c(F)c1` [Example 125, 3,5-difluoro-4-hydroxy-N-({4-[5-(trifluoromethyl)-2H-indazol-2-yl]bicyclo[2.2.2]octan-1-yl}methyl)benzamide], the IC50 at wild type human HSD17B13 amounted to 250 nM; on HSD17B13 enzyme, 17 nM.

For `O=C(NC[C@]12CC[C@](c3nc(-c4ccc(C(F)(F)F)nn4)no3)(CC1)CC2)c1ccc(O)c(F)c1F` [Example 180, 2,3-difluoro-4-hydroxy-N-[(4-{3-[6-(trifluoromethyl)pyridazin-3-yl]-1,2,4-oxadiazol-5-yl}bicyclo[2.2.2]octan-1-yl)methyl]benzamide], the IC50 on wild type human HSD17B13 turned out to be 470 nM; on HSD17B13 enzyme, 11 nM.

As to `COc1nn(C)cc1-c1ccc2cn([C@H]3CC[C@H](CNC(=O)c4cc(F)c(O)c(F)c4)CC3)nc2c1` [Example 42, 3,5-difluoro-4-hydroxy-N-({(1r,4r)-4-[6-(3-methoxy-1-methyl-1H-pyrazol-4-yl)-2H-indazol-2-yl]cyclohexyl}methyl) benzamide], the half-maximal inhibitory concentration (IC50) was 260 nM on wild type human HSD17B13 and 11 nM on HSD17B13 enzyme.

For the compound `COc1ccc(-c2noc([C@]34CC[C@](CNC(=O)c5cc(F)c(O)c(F)c5F)(CC3)CC4)n2)nn1` [Example 15, 2,3,5-Trifluoro-4-hydroxy-N-({4-[3-(6-methoxypyridazin-3-yl)-1,2,4-oxadiazol-5-yl]bicyclo[2.2.2]octan-1-yl}methyl)benzamide], the IC50 amounted to 220 nM at wild type human HSD17B13 and 7.1 nM on HSD17B13 enzyme.

In the case of `Cc1ccc(-c2noc([C@]34CC[C@](CNC(=O)c5cc(F)c(O)c(F)c5)(CC3)CC4)n2)nn1` [Example 123, 3,5-difluoro-4-hydroxy-N-({4-[3-(6-methylpyridazin-3-yl)-1,2,4-oxadiazol-5-yl]bicyclo[2.2.2]octan-1-yl}methyl)benzamide], the half-maximal inhibitory concentration (IC50) amounted to 460 nM on wild type human HSD17B13 and 10 nM at HSD17B13 enzyme.

In the case of `Cc1ccc2cn([C@H]3CC[C@H](CNC(=O)c4cc(F)c(O)c(F)c4)CC3)nc2c1` [Example 130, 3,5-difluoro-4-hydroxy-N-{[(1r,4r)-4-(6-methyl-2H-indazol-2-yl)cyclohexyl]methyl}benzamide], the IC50 at wild type human HSD17B13 is 330 nM; at HSD17B13 enzyme, 27 nM.

As to `Cc1ccc(-c2noc([C@H]3CC[C@H](CNC(=O)c4cc(F)c(O)c(F)c4)CC3)n2)nn1` [Example 211, 3,5-difluoro-4-hydroxy-N-({(1r,4r)-4-[3-(6-methyl-pyridazin-3-yl)-1,2,4-oxadiazol-5-yl]cyclohexyl}methyl) benzamide], the IC50 on wild type human HSD17B13 came out at 2700 nM; at HSD17B13 enzyme it was 15 nM.

Take `N#Cc1ccc(-c2ccc3cn([C@H]4CC[C@H](CNC(=O)c5cc(F)c(O)c(F)c5)CC4)nc3c2)cc1` [Example 70, N-({(1r,4r)-4-[6-(4-cyanophenyl)-2H-indazol-2-yl]cyclohexyl}methyl)-3,5-difluoro-4-hydroxybenzamide]: the concentration for half-maximal inhibition (IC50) is 190 nM at wild type human HSD17B13 and 3.8 nM on HSD17B13 enzyme.

Take `O=C(NC[C@]12CC[C@](c3nc(-c4ccc(C(F)(F)F)nn4)no3)(CC1)CC2)c1cc(F)c(O)c(F)c1F` [Example 184, 2,3,5-trifluoro-4-hydroxy-N-[(4-{3-[6-(trifluoromethyl)pyridazin-3-yl]-1,2,4-oxadiazol-5-yl}bicyclo[2.2.2]octan-1-yl)methyl]benzamide]: the half-inhibitory concentration (IC50) was found to be 220 nM on wild type human HSD17B13 and 5.5 nM on HSD17B13 enzyme.
